Data published in the kinase profiling compilation of Christmann-Franck et al. (2016).

Assays:
Assay in all cases: radiometric filter-binding kinase assay, Kinase HotSpot
Settings in all cases: compound 0.5 µM; ATP 10 µM
STK38 (human) = STK38 (human) (UniProt Q15208)
MAP3K3 (human) = MAP3K3 (human) (UniProt Q99759)
NLK (human) = NLK (human) (UniProt Q9UBE8)
PAK1 (human) = PAK1 (human) (UniProt Q13153)
PLK2 (human) = PLK2 (human) (UniProt Q9NYY3)
MAP3K5 (human) = MAP3K5 (human) (UniProt Q99683)
MAP3K9 (human) = MAP3K9 (human) (UniProt P80192)
TEK (human) = TEK (human) (UniProt Q02763)
CSNK1E (human) = CSNK1E (human) (UniProt P49674)
SRPK2 (human) = SRPK2 (human) (UniProt P78362)
PRKCE (human) = PRKCE (human) (UniProt Q02156)
SGK3 (human) = SGK3 (human) (UniProt Q96BR1)
MAPKAPK2 (human) = MAPKAPK2 (human) (UniProt P49137)
TXK (human) = TXK (human) (UniProt P42681)
FLT3 (human) = FLT3 (human) (UniProt P36888)
CLK1 (human) = CLK1 (human) (UniProt P49759)
HIPK4 (human) = HIPK4 (human) (UniProt Q8NE63)
CAMK1G (human) = CAMK1G (human) (UniProt Q96NX5)
IGF1R (human) = IGF1R (human) (UniProt P08069)
RPS6KB2 (human) = RPS6KB2 (human) (UniProt Q9UBS0)
STK33 (human) = STK33 (human) (UniProt Q9BYT3)
YES1 (human) = YES1 (human) (UniProt P07947)
CDK9 CCNT1 (human) = CDK9 CCNT1 (human) (UniProt P50750+O60563)
AURKB (human) = AURKB (human) (UniProt Q96GD4)
MAP3K14 (human) = MAP3K14 (human) (UniProt Q99558)
PLK3 (human) = PLK3 (human) (UniProt Q9H4B4)
NTRK2 (human) = NTRK2 (human) (UniProt Q16620)
ZAP70 (human) = ZAP70 (human) (UniProt P43403)
ITK (human) = ITK (human) (UniProt Q08881)
STK4 (human) = STK4 (human) (UniProt Q13043)
CDK9 CCNK (human) = CDK9 CCNK (human) (UniProt O75909+P50750)
WNK2 (human) = WNK2 (human) (UniProt Q9Y3S1)
GSG2 (human) = GSG2 (human) (UniProt Q8TF76)
PTK2B (human) = PTK2B (human) (UniProt Q14289)
DAPK1 (human) = DAPK1 (human) (UniProt P53355)
SYK (human) = SYK (human) (UniProt P43405)
HIPK2 (human) = HIPK2 (human) (UniProt Q9H2X6)
MYO3B (human) = MYO3B (human) (UniProt Q8WXR4)
FLT1 (human) = FLT1 (human) (UniProt P17948)
[1] = molecular target: TYK2 JH1 catalytic (human) (UniProt P29597)
TAOK3 (human) = TAOK3 (human) (UniProt Q9H2K8)
AXL (human) = AXL (human) (UniProt P30530)
Chain of AXL (human) (P30530 whole entry, looked up): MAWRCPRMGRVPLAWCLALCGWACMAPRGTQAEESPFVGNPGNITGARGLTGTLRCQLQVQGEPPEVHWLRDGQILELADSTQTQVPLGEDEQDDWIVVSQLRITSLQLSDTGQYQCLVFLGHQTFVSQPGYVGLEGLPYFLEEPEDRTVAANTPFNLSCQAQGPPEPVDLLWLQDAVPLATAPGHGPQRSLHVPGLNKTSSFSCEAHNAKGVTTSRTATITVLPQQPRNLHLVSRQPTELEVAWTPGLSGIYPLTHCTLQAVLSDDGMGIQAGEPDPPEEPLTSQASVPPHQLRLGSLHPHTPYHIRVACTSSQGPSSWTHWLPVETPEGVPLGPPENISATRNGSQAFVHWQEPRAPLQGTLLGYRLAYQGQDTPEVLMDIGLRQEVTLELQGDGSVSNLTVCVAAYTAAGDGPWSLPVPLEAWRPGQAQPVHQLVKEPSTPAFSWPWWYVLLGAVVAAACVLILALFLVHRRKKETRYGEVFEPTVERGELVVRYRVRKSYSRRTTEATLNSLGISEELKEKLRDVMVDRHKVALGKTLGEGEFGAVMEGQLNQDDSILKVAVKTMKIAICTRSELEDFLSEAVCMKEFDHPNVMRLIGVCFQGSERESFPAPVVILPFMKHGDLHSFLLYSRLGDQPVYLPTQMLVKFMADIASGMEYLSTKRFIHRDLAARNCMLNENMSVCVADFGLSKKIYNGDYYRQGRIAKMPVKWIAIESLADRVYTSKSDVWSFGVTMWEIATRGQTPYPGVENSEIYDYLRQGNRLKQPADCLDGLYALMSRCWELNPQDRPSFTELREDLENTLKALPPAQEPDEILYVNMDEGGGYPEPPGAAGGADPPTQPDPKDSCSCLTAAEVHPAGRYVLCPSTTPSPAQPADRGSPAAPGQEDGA

Chain of DAPK1 (human) (P53355 whole entry, looked up): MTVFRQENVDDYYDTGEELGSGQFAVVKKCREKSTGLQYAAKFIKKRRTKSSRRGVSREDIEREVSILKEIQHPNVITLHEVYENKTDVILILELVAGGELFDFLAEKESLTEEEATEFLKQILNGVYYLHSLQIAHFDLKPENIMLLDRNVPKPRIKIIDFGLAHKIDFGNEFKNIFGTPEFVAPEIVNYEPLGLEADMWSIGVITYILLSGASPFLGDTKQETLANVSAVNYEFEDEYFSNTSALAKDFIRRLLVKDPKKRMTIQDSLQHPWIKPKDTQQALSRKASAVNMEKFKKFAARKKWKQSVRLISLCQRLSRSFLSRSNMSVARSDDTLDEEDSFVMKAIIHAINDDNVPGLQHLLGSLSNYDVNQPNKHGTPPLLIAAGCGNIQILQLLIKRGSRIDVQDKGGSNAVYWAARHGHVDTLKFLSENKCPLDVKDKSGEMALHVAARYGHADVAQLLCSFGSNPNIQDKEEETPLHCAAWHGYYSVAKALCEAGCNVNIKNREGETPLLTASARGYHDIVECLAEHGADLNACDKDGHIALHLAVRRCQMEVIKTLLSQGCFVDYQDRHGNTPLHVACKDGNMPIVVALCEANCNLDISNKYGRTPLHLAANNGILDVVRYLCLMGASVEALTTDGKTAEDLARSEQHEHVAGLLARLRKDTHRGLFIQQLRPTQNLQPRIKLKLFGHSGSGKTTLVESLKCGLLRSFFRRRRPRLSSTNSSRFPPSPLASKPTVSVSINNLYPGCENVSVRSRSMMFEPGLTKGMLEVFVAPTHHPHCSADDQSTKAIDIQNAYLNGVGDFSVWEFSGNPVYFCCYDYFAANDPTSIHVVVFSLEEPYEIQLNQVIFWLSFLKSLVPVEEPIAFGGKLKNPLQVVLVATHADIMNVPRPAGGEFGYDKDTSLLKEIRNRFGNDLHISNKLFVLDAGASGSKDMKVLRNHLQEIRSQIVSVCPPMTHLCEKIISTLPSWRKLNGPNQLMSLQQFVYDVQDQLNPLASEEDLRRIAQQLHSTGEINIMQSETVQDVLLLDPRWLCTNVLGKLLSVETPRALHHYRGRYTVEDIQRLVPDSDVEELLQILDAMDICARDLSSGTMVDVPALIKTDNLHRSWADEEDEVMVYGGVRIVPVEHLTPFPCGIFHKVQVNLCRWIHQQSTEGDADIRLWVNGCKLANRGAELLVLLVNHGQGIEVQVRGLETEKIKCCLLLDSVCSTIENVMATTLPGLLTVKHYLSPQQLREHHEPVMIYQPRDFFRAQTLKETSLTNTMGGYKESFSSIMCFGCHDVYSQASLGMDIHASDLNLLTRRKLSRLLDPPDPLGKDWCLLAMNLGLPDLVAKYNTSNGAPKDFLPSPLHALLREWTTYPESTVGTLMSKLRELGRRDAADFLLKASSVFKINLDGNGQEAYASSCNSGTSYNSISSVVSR
Chain of NTRK2 (human) (Q16620 whole entry, looked up): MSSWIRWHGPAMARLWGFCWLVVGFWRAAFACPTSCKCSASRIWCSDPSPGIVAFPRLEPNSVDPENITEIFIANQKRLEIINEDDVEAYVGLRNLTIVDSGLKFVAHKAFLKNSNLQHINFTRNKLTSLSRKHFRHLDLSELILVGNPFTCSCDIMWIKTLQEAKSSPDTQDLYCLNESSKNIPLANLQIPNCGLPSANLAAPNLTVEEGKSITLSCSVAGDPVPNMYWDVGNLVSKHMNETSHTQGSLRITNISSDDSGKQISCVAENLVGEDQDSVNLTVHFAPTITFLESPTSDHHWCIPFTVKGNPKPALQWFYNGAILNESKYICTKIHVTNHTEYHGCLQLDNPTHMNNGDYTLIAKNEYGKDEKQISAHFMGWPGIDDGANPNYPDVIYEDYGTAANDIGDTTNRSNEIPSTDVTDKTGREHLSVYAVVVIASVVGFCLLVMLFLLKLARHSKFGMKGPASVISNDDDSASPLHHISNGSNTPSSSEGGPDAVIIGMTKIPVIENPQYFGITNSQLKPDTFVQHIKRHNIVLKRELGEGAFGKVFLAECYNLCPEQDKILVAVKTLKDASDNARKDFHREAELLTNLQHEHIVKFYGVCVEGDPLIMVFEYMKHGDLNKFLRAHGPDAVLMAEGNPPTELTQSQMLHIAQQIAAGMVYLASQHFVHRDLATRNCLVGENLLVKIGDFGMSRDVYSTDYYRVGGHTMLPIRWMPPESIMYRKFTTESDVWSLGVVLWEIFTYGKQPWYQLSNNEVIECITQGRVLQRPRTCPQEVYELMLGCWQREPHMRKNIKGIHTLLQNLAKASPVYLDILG
Chain of TAOK3 (human) (Q9H2K8 whole entry, looked up): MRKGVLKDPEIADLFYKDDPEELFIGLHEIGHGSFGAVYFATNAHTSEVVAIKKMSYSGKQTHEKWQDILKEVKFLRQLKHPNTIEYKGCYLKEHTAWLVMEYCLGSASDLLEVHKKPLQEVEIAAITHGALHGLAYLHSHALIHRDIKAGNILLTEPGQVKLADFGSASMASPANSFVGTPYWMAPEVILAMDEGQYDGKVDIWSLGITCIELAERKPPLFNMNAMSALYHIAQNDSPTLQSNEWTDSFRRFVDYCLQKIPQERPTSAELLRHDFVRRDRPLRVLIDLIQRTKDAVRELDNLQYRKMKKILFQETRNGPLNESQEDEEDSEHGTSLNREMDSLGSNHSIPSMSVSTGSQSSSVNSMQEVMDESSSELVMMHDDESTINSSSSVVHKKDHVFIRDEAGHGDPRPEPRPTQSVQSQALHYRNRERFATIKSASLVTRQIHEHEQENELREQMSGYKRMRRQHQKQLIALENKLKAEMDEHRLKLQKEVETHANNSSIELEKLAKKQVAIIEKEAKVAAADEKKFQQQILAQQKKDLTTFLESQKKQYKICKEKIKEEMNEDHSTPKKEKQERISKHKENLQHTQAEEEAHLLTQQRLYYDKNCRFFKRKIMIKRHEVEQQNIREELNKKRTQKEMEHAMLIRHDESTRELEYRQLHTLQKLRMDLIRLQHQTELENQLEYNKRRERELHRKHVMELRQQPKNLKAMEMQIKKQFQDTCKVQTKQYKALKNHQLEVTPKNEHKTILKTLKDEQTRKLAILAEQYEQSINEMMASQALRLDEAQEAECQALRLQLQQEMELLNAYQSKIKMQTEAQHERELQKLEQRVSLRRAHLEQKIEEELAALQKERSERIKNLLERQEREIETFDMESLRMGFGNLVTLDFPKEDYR
Chain of CDK9 CCNK (human) (O75909 whole entry, looked up): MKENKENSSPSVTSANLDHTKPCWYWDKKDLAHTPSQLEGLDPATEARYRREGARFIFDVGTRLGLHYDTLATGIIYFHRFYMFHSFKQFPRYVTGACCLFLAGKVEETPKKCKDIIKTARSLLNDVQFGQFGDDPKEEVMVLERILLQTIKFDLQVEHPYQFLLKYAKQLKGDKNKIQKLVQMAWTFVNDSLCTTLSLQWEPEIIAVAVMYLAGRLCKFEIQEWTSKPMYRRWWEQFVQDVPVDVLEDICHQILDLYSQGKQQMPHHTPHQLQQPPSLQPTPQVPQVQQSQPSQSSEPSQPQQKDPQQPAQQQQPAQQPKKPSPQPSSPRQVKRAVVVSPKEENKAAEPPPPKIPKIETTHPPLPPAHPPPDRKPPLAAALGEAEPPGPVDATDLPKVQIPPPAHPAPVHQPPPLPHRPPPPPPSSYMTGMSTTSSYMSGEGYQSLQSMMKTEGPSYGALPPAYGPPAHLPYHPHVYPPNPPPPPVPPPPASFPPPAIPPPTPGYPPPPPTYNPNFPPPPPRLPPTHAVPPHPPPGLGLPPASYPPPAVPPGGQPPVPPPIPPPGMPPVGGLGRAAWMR
Chain of CDK9 CCNK (human) (P50750 whole entry, looked up): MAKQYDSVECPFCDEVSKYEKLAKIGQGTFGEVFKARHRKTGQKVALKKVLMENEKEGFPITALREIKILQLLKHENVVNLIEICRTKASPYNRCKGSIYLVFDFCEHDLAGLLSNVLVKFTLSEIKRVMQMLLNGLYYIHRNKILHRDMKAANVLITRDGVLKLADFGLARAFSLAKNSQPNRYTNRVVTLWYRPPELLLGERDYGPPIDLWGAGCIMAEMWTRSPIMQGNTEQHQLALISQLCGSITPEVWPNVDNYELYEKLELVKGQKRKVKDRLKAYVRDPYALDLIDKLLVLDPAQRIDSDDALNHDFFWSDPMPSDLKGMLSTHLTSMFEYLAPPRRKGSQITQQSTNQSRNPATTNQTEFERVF

For `COc1cc2ncnc(Nc3cccc(Cl)c3)c2cc1OC`, the residual activity (STK38 (human)) was 104%, the residual activity (MAP3K3 (human)) was 88.3% and the residual activity (NLK (human)) was 83.1%. The residual activity (PAK1 (human)) was 89.3%, the residual activity (PLK2 (human)) was 102% and the residual activity (MAP3K5 (human)) was 106%. For the same compound, the residual activity (MAP3K9 (human)) was 82.8%, the residual activity (TEK (human)) was 88.6% and the residual activity (CSNK1E (human)) was 75.3%. For the same compound, the residual activity (SRPK2 (human)) was 88.2%, the residual activity (PRKCE (human)) was 97.8% and the residual activity (SGK3 (human)) was 90.9%. It also gave a residual activity (MAPKAPK2 (human)) of 98%, a residual activity (TXK (human)) of 75% and a residual activity (FLT3 (human)) of 37.6%. The residual activity (CLK1 (human)) was 103%, the residual activity (HIPK4 (human)) was 64.4% and the residual activity (CAMK1G (human)) was 93.6%. The residual activity (IGF1R (human)) was 75.9%, the residual activity (RPS6KB2 (human)) was 105% and the residual activity (STK33 (human)) was 88.3%. It also gave a residual activity (YES1 (human)) of 59.9%, a residual activity (CDK9 CCNT1 (human)) of 85.1% and a residual activity (AURKB (human)) of 74.4%. It also gave a residual activity (MAP3K14 (human)) of 107%, a residual activity (PLK3 (human)) of 92.3% and a residual activity (NTRK2 (human)) of 93.3%. It also gave a residual activity (ZAP70 (human)) of 102%, a residual activity (ITK (human)) of 93.8% and a residual activity (STK4 (human)) of 92%. For the same compound, the residual activity (CDK9 CCNK (human)) was 106%, the residual activity (WNK2 (human)) was 98.6% and the residual activity (GSG2 (human)) was 84.8%. It also gave a residual activity (PTK2B (human)) of 85.3%, a residual activity (DAPK1 (human)) of 108% and a residual activity (SYK (human)) of 86.9%. The residual activity (HIPK2 (human)) was 88.8%, the residual activity (MYO3B (human)) was 81.2% and the residual activity (FLT1 (human)) was 74.4%. The residual activity [1] was 98.1%, the residual activity (TAOK3 (human)) was 90.4% and the residual activity (AXL (human)) was 95.3%.
